Measurements reported in PubChem BioAssay AID1918939 (Molecular Pharmacology Branch, DTP, NCI, 2023).
pIC50: −log10 of the molar value. Several values for one entry are separate records, joined by “and”; a condition that tells them apart may be missing. Equal entries are not always repeated.

Test system: 653999-131-R-J2-PDC complex spheroid viability
Experiment: Anticancer human tumor 653999-131-R-J2-PDC patient-derived lung adenocarcinoma cell line growth inhibition
Details: for viability, T/C: stronger effect = lower value
In short: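 Complex spheroids of tumor cells with HUVEC and human MSCs, exposed to iadademstat combined with other agents. Each agent tested in half-log steps from near clinical Cmax (else 10 microM top), DMSO ≤0.25%.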

[1] = curve of first compound, second compound 0.1 µM
[2] = curve of first compound, second compound 0.316 µM
[3] = curve of first compound, second compound 1 µM
[4] = curve of first compound, second compound 3.16 µM
[5] = curve of first compound, second compound 10 µM
[6] = second compound 0.1 µM, first compound 0.00316 µM
[7] = second compound 0.1 µM, first compound 0.01 µM
[8] = second compound 0.1 µM, first compound 0.0316 µM
[9] = second compound 0.1 µM, first compound 0.1 µM
[10] = second compound 0.1 µM, first compound 0.316 µM
[11] = second compound 0.1 µM, first compound 1 µM
[12] = second compound 0.316 µM, first compound 0.00316 µM
[13] = second compound 0.316 µM, first compound 0.01 µM
[14] = second compound 0.316 µM, first compound 0.0316 µM
[15] = second compound 0.316 µM, first compound 0.1 µM
[16] = second compound 0.316 µM, first compound 0.316 µM
[17] = second compound 0.316 µM, first compound 1 µM
[18] = second compound 1 µM, first compound 0.00316 µM
[19] = second compound 1 µM, first compound 0.01 µM
[20] = second compound 1 µM, first compound 0.0316 µM
[21] = second compound 1 µM, first compound 0.1 µM
[22] = second compound 1 µM, first compound 0.316 µM
[23] = second compound 1 µM, first compound 1 µM
[24] = second compound 3.16 µM, first compound 0.00316 µM
[25] = second compound 3.16 µM, first compound 0.01 µM
[26] = second compound 3.16 µM, first compound 0.0316 µM
[27] = second compound 3.16 µM, first compound 0.1 µM
[28] = second compound 3.16 µM, first compound 0.316 µM
[29] = second compound 3.16 µM, first compound 1 µM
[30] = second compound 10 µM, first compound 0.00316 µM
[31] = second compound 10 µM, first compound 0.01 µM
[32] = second compound 10 µM, first compound 0.0316 µM
[33] = second compound 10 µM, first compound 0.1 µM
[34] = second compound 10 µM, first compound 0.316 µM
[35] = second compound 10 µM, first compound 1 µM
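Further: spheroids exposed to agents for seven days before readout.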

Structure (SMILES) | pIC50 [1] | pIC50 [2] | pIC50 [3] | pIC50 [4] | pIC50 [5] | viability, T/C [6] [%] | viability, T/C [7] [%] | viability, T/C [8] [%] | viability, T/C [9] [%] | viability, T/C [12] [%] | viability, T/C [13] [%] | viability, T/C [14] [%] | viability, T/C [15] [%] | viability, T/C [18] [%] | viability, T/C [19] [%] | viability, T/C [20] [%] | viability, T/C [21] [%] | viability, T/C [24] [%] | viability, T/C [25] [%] | viability, T/C [26] [%] | further results
CC1COCCN1c1cc(-c2ccnn2C)c2ccnc(-c3ccn[nH]3)c2n1 (stereo not drawn) + NC1CCC(NC2CC2c2ccccc2)CC1 | 7.64 | 7.66 | 7.45 | 7.61 | 7.50 | 85.9 | 67.7 | 42.8 | 33 | 79.6 | 59 | 48.1 | 32.3 | 78.1 | 67.7 | 52 | 35.9 | 92.2 | 64.1 | 44.8 | viability, T/C [10]: 32.3%; viability, T/C [11]: 27.1%; viability, T/C [16]: 28.1%; viability, T/C [17]: 27.7%; viability, T/C [22]: 33.9%; viability, T/C [23]: 27.9%; viability, T/C [27]: 37.3%; viability, T/C [28]: 31.1%; viability, T/C [29]: 27.8%; viability, T/C [30]: 84.4%; viability, T/C [31]: 68.1%; viability, T/C [32]: 50.9%; viability, T/C [33]: 36.5%; viability, T/C [34]: 33.5%; viability, T/C [35]: 30.1%
O=C(C=Cn1cnc(-c2cc(C(F)(F)F)cc(C(F)(F)F)c2)n1)NNc1cnccn1 + NC1CCC(NC2CC2c2ccccc2)CC1 | 8.31 | 8.09 | 7.90 | 7.95 | 8.01 | 53.1 | 46.5 | 35.8 | 30.6 | 57.2 | 48.7 | 40.9 | 34.6 | 53.6 | 50.1 | 48 | 34.6 | 64 | 46.3 | 42.7 | viability, T/C [10]: 31.8%; viability, T/C [11]: 19.6%; viability, T/C [16]: 29.4%; viability, T/C [17]: 26.2%; viability, T/C [22]: 30.6%; viability, T/C [23]: 22.4%; viability, T/C [27]: 35.4%; viability, T/C [28]: 29.1%; viability, T/C [29]: 21.9%; viability, T/C [30]: 60.4%; viability, T/C [31]: 45.5%; viability, T/C [32]: 41%; viability, T/C [33]: 40.6%; viability, T/C [34]: 32.5%; viability, T/C [35]: 24.2%
CC(C)CC(NC(=O)C(Cc1ccccc1)NC(=O)c1cnccn1)B(O)O (stereo not drawn) + NC1CC1c1ccc(-c2cccc(O)c2)cc1 | 9.08 | 9.04 | 9.10 | 9.01 | 9.23 | 12.9 | 4.58 | 1.38 | 2.17 | 11.4 | 3.25 | 1.54 | 1.44 | 11.6 | 3.96 | 0.99 | 4.31 | 16 | 3.4 | 1.41 | viability, T/C (second compound 0.1 µM, first compound 0.000316 µM): 122%; viability, T/C (second compound 0.1 µM, first compound 0.001 µM): 35.4%; viability, T/C (second compound 0.316 µM, first compound 0.000316 µM): 110%; viability, T/C (second compound 0.316 µM, first compound 0.001 µM): 44.2%; viability, T/C (second compound 1 µM, first compound 0.000316 µM): 109%; viability, T/C (second compound 1 µM, first compound 0.001 µM): 34%; viability, T/C (second compound 3.16 µM, first compound 0.000316 µM): 103%; viability, T/C (second compound 3.16 µM, first compound 0.001 µM): 48.9%; viability, T/C [27]: 2.37%; viability, T/C (second compound 10 µM, first compound 0.000316 µM): 74.4%; viability, T/C (second compound 10 µM, first compound 0.001 µM): 29.1%; viability, T/C [30]: 9.61%; viability, T/C [31]: 3.68%; viability, T/C [32]: 1.33%; viability, T/C [33]: 2.12%
CC1(C)CCC(CN2CCN(c3ccc(C(=O)NS(=O)(=O)c4ccc(NCC5CCOCC5)c([N+](=O)[O-])c4)c(Oc4cnc5[nH]ccc5c4)c3)CC2)=C(c2ccc(Cl)cc2)C1 | – | – | – | – | – | – | – | – | – | – | – | – | – | – | – | – | – | – | – | – | viability, T/C (compound 0.0316 µM): 92.8% and 101%; viability, T/C (compound 0.1 µM): 106% and 102%; viability, T/C (compound 0.316 µM): 97% and 104%; viability, T/C (compound 1 µM): 83.8% and 97.2%; viability, T/C (compound 3.16 µM): 92.2% and 85.6%; viability, T/C (compound 10 µM): 60.5% and 26.7%; pIC50 (curve of compound): < 5.00 and 5.20
COc1cc(Nc2ncc3c(n2)-c2ccc(Cl)cc2C(c2c(F)cccc2OC)=NC3)ccc1C(=O)O + NC1CC1c1ccc(-c2cccc(O)c2)cc1 | < 6.00 | < 6.00 | < 6.00 | 6.09 | < 6.00 | 66.8 | 75.8 | 73.6 | 62.1 | 63.6 | 70.6 | 65.8 | 57.2 | 63.5 | 70.8 | 61.8 | 59.8 | 62.1 | 58.9 | 58 | viability, T/C [10]: 66.8%; viability, T/C [11]: 64.8%; viability, T/C [16]: 57.3%; viability, T/C [17]: 53.9%; viability, T/C [22]: 57.3%; viability, T/C [23]: 53.7%; viability, T/C [27]: 54.7%; viability, T/C [28]: 51.7%; viability, T/C [29]: 49.6%; viability, T/C [30]: 60.2%; viability, T/C [31]: 66.3%; viability, T/C [32]: 65.1%; viability, T/C [33]: 55.5%; viability, T/C [34]: 56.8%; viability, T/C [35]: 53.5%
O=C(C=Cc1cccc(S(=O)(=O)Nc2ccccc2)c1)NO | – | – | – | – | – | – | – | – | – | – | – | – | – | – | – | – | – | – | – | – | viability, T/C (compound 0.00949 µM): 87.5% and 110%; viability, T/C (compound 0.03 µM): 96.6% and 99.4%; viability, T/C (compound 0.0949 µM): 75.9% and 90.7%; viability, T/C (compound 0.3 µM): 54.9%; viability, T/C (compound 0.949 µM): 30.9% and 11.4%; pIC50 (curve of compound): 6.40 and < 5.52
